Laboratory results from PMC12649549, “Sequence Permutation Generated Lysine and Tryptophan-Rich Antimicrobial Peptides with Enhanced Therapeutic Index” (Antibiotics, 2025).
Read-outs that look alike come from different tables or passages of the source.

Tests used:
Gram-negative bacteria = assay: Geometric mean MIC and therapeutic index, Gram-negative bacteria; format: cell-based; details: Gram-negative bacteria
Method: (§1) In this study, we aimed to investigate the potential of W5K series peptides for therapeutic use. To evaluate their efficacy for antibacterial therapy, we used the Therapeutic Index (TI) as a measure of their cell selectivity. The TI was calculated as the ratio of the concentration causing 10% hemolysis of human red blood cells (HC10) to the geometric mean minimum inhibitory concentration (GM) of the peptides against both Gram-negative and Gram-positive bacteria. This parameter was used to quantitatively assess the balance between antibacterial potency and cytotoxicity among the W5K derivatives.
(§2) The antibacterial activities of the peptides in Müller-Hinton (MH) broth and modified LYM broth were determined using the standard broth microdilution method as per Clinical and Laboratory Standards Institute (CLSI) guidelines. The LYM broth was prepared with specific components and adjusted to different conditions, including varying concentrations of NaCl and MgCl2, and different pH levels. To prepare the LYM broth, 5.4 mM KCl, 5.6 mM Na2HPO4, 0.5 mM MgSO4, and 1.0 mM sodium citrate were added. Additionally, 0.4 mg of ZnCl2, 2.0 mg of FeCl3·6H2O, 0.1 mg of CuSO4·5H2O, 0.1 mg of MnSO4·H2O, 0.1 mg of Na2B4O7∙10H2O, 700 mg of amino acid mixtures without tryptophan (Takara Bio Inc., San Jose, CA, USA), and 20 mg of L-tryptophan were added per liter of medium. The pH was adjusted to 7.4, and a vitamin mixture (100X, Sigma) and glucose concentration of 2% were added. For different conditions of LYM broth, NaCl concentrations of 300, 200, 150, and 50 mM, MgCl2 concentrations of 2.5, 1.5, and 0.5 mM, and pH levels of 6.5, 5.5, and 4.5 were adjusted. Bacterial strains were incubated in MH broth overnight, regrown, and diluted to a final concentration of 5 × 10^5 CFU/mL. Peptides were added to each well at final concentrations of 50, 25, 12.5, 6.25, 3.13, 1.56, and 0.78 µg/mL, and 99 µL of diluted microbes was loaded into each well of a polypropylene 96-well plate. […] The Morpheus HeatMap software (https://software.broadinstitute.org/morpheus/) was used to display MIC values on a color scale. All experiments were independently repeated three times.

Gram-positive bacteria = assay: Geometric mean MIC and therapeutic index, Gram-positive bacteria; format: cell-based; details: Gram-positive bacteria
Method: as §1, §2

[1] = tested on: A. baumannii 14B0097 (Acinetobacter sp., BCRC number 14B0097)
Method: (§3) The antibacterial and salt-resistant activity of the peptides was tested using Escherichia coli (ATCC 25922), Pseudomonas aeruginosa Migula (ATCC 27853), Acinetobacter sp. (BCRC number 14B0091, BCRC number 14B0097, and BCRC number 14B0100), and Staphylococcus aureus sp. strains (ATCC 25923, ATCC 33591, ATCC 33592, ATCC 33593, and ATCC 6538). All bacteria were obtained from the Food Industry Research and Development Institute (Hsinchu, Taiwan) and cultured in sterilized Müller-Hinton (MH) broth at 37 °C and 200 rpm for 8 h. The inoculum concentrations were determined by measuring the optical density at 600 nm (OD 600 = 1, approximately 10^8 CFU/mL) using an Ultrospec 2100 pro UV-Visible spectrophotometer (Biochrom Ltd., Cambridge, UK) after 8 h of culture.
as §2

[2] = tested on: A. baumannii 14B0091 (Acinetobacter sp., BCRC number 14B0091)
Method: as §3, §2

S. aureus ATCC 6538 = tested on: S. aureus ATCC 6538
Method: as §3, §2

[3] = tested on: A. baumannii 14B00100 (Acinetobacter sp., BCRC number 14B0100)
Method: as §3, §2

[4] = tested on: Escherichia coli (ATCC 25922)
Method: as §3, §2

S. aureus ATCC 25923 = tested on: S. aureus ATCC 25923
Method: as §3, §2

[5] = MH broth, MIC >50 µg/mL counted as 100 µg/mL
[6] = LYM broth, 0 mM NaCl, 16 h, 37 °C
[7] = LYM broth, 50 mM NaCl, 16 h, 37 °C
[8] = LYM broth, 100 mM NaCl, 16 h, 37 °C
[9] = LYM broth, 200 mM (NaCl), 16 h, 37 °C
[10] = LYM broth, 300 mM (NaCl), 16 h, 37 °C
[11] = MH broth, 5 × 10^5 CFU/mL, 16 h, 37 °C, repeated three times

## Ac-AKKKKWRKWLKWL-NH2 [Peptide W5K10]
Gram-negative bacteria; [5]
  GM G− (geometric mean of the MIC values): 3.1 µg/mL
Gram-negative bacteria; HC10/GM
  Therapeutic Index (TI) G−: 34.8
Gram-positive bacteria; [5]
  GM G+ (geometric mean of the MIC values): 9.5 µg/mL
Gram-positive bacteria; HC10/GM
  Therapeutic Index (TI) G+: 11.5
[1]; [6]
  MIC: 1.56 µg/mL
[1]; LYM broth, 0.5 mM MgCl2
  MIC: 1.56 µg/mL
[1]; LYM broth, 1.5 mM MgCl2
  MIC: 1.56 µg/mL
[1]; LYM broth, 2.5 mM MgCl2
  MIC: 3.13 µg/mL
[1]; [7]
  MIC: 1.56 µg/mL
[1]; [8]
  MIC: 1.56 µg/mL
[1]; [9]
  MIC: 1.56 µg/mL
[1]; [10]
  MIC: 6.25 µg/mL
[1]; LYM broth, pH 4.5
  MIC: 3.13 µg/mL
[1]; LYM broth, pH 5.5
  MIC: 1.56 µg/mL
[1]; LYM broth, pH 6.5
  MIC: 1.56 µg/mL
[1]; [11]
  MIC: 1.56 µg/mL
[2]; [6]
  MIC: 1.56 µg/mL
[2]; LYM broth, 0.5 mM MgCl2
  MIC: 1.56 µg/mL
[2]; LYM broth, 1.5 mM MgCl2
  MIC: 1.56 µg/mL
[2]; LYM broth, 2.5 mM MgCl2
  MIC: 3.13 µg/mL
[2]; [7]
  MIC: 1.56 µg/mL
[2]; [8]
  MIC: 1.56 µg/mL
[2]; [9]
  MIC: 1.56 µg/mL
[2]; [10]
  MIC: 3.13 µg/mL
[2]; LYM broth, pH 4.5
  MIC: 3.13 µg/mL
[2]; LYM broth, pH 5.5
  MIC: 1.56 µg/mL
[2]; LYM broth, pH 6.5
  MIC: 1.56 µg/mL
[2]; [11]
  MIC: 1.56 µg/mL
S. aureus ATCC 6538; [6]
  MIC: 1.56 µg/mL
S. aureus ATCC 6538; LYM broth, 0.5 mM MgCl2
  MIC: 1.56 µg/mL
S. aureus ATCC 6538; LYM broth, 1.5 mM MgCl2
  MIC: 1.56 µg/mL
S. aureus ATCC 6538; LYM broth, 2.5 mM MgCl2
  MIC: 1.56 µg/mL
S. aureus ATCC 6538; [7]
  MIC: 1.56 µg/mL
S. aureus ATCC 6538; [8]
  MIC: 3.13 µg/mL
S. aureus ATCC 6538; [9]
  MIC: 6.25 µg/mL
S. aureus ATCC 6538; [10]
  MIC: 12.5 µg/mL
S. aureus ATCC 6538; LYM broth, pH 4.5
  MIC: 6.25 µg/mL
S. aureus ATCC 6538; LYM broth, pH 5.5
  MIC: 3.13 µg/mL
S. aureus ATCC 6538; LYM broth, pH 6.5
  MIC: 1.56 µg/mL
S. aureus ATCC 6538; [11]
  MIC: 6.25 µg/mL
[3]; [6]
  MIC: 1.56 µg/mL
[3]; LYM broth, 0.5 mM MgCl2
  MIC: 1.56 µg/mL
[3]; LYM broth, 1.5 mM MgCl2
  MIC: 1.56 µg/mL
[3]; LYM broth, 2.5 mM MgCl2
  MIC: 3.13 µg/mL
[3]; [7]
  MIC: 1.56 µg/mL
[3]; [8]
  MIC: 1.56 µg/mL
[3]; [9]
  MIC: 1.56 µg/mL
[3]; [10]
  MIC: 3.13 µg/mL
[3]; LYM broth, pH 4.5
  MIC: 1.56 µg/mL
[3]; LYM broth, pH 5.5
  MIC: 1.56 µg/mL
[3]; LYM broth, pH 6.5
  MIC: 1.56 µg/mL
[3]; [11]
  MIC: 3.13 µg/mL
[4]; [6]
  MIC: 3.13 µg/mL
[4]; LYM broth, 0.5 mM MgCl2
  MIC: 3.13 µg/mL
[4]; LYM broth, 1.5 mM MgCl2
  MIC: 6.25 µg/mL
[4]; LYM broth, 2.5 mM MgCl2
  MIC: 6.25 µg/mL
[4]; [7]
  MIC: 3.13 µg/mL
[4]; [8]
  MIC: 12.5 µg/mL
[4]; [9]
  MIC: 12.5 µg/mL
[4]; [10]
  MIC: 25 µg/mL
[4]; LYM broth, pH 4.5
  MIC: 3.13 µg/mL
[4]; LYM broth, pH 5.5
  MIC: 1.56 µg/mL
[4]; LYM broth, pH 6.5
  MIC: 1.56 µg/mL
[4]; [11]
  MIC: 6.25 µg/mL
S. aureus ATCC 25923; [6]
  MIC: 3.13 µg/mL
S. aureus ATCC 25923; LYM broth, 0.5 mM MgCl2
  MIC: 1.56 µg/mL
S. aureus ATCC 25923; LYM broth, 1.5 mM MgCl2
  MIC: 3.13 µg/mL
S. aureus ATCC 25923; LYM broth, 2.5 mM MgCl2
  MIC: 3.13 µg/mL
S. aureus ATCC 25923; [7]
  MIC: 3.13 µg/mL
S. aureus ATCC 25923; [8]
  MIC: 6.25 µg/mL
S. aureus ATCC 25923; [9]
  MIC: 12.5 µg/mL
S. aureus ATCC 25923; [10]
  MIC: 25 µg/mL
S. aureus ATCC 25923; LYM broth, pH 4.5
  MIC: 3.13 µg/mL
S. aureus ATCC 25923; LYM broth, pH 5.5
  MIC: 3.13 µg/mL
S. aureus ATCC 25923; LYM broth, pH 6.5
  MIC: 3.13 µg/mL
S. aureus ATCC 25923; [11]
  MIC: 6.25 µg/mL
